In general, EC50 refers to the concentration at which the effect is half-maximal.

The target in data set [1] is GLP-1R (Homo sapiens, UniProt P43220). Description: GLP-1R activation: cAMP increase in CHO cells stably expressing GLP-1R. The format is cell-based. Particulars: cAMP increase, CHO cells stably expressing GLP-1R, 10 point dose response, 30 minutes incubation; read-out: EC50.
Data set [2] in a line: Microsomal stability, human liver microsomes (predicted hepatic clearance). Particulars: predicted from in vitro microsomal stability data.

Chain of GLP-1R (P43220 24-463): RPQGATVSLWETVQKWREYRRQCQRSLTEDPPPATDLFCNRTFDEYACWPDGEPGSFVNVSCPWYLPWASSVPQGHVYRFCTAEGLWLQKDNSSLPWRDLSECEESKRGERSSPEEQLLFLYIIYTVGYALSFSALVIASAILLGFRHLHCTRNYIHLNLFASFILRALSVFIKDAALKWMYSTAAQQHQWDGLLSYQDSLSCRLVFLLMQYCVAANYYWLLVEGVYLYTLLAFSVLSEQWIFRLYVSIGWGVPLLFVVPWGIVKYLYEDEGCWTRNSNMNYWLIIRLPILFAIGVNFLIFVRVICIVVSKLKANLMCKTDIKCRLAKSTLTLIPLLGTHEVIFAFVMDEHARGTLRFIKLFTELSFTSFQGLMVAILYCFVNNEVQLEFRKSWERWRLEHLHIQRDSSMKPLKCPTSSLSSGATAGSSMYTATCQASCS

With `COCCn1c(Cc2cc(F)c(-c3cccc(OCc4cnc(C(F)(F)F)s4)n3)cc2F)nc2ccc(C(=O)O)cc21` [Example 862], the half-maximal effective concentration (EC50) in data set [1] worked out at 16.2 nM. Further, the “Predicted Hepatic Clearance (Pred. Cl.)” value in data set [2] was 4.33 mL/min/kg.

In the case of `COCCn1c(Cc2cc(F)c(-c3cccc(OCc4cc(F)c(C(F)F)cc4F)n3)cc2F)nc2ccc(C(=O)O)cc21` [Example 863], the EC50 in data set [1] was found to be 5.51 nM. The “Predicted Hepatic Clearance (Pred. Cl.)” value in data set [2] was 4.83 mL/min/kg.

In the case of `COCCn1c(Cc2cc(F)c(-c3cccc(OCc4ccc(-n5cccn5)nc4)n3)cc2F)nc2ccc(C(=O)O)cc21` [Example 865], the EC50 in data set [1] was 29.8 nM. Besides, the “Predicted Hepatic Clearance (Pred. Cl.)” value in data set [2] is 4.33 mL/min/kg.

On to `COCCn1c(Cc2cc(F)c(-c3cccc(OCc4ccc(OC)nc4)n3)cc2F)nc2ccc(C(=O)O)cc21` [Example 866, 2-[[2,5-difluoro-4-[6-[(6-methoxy-3-pyridyl)methoxy]-2-pyridyl]phenyl]methyl]-3-(2-methoxyethyl)benzimidazole-5-carboxylic acid], for which, in data set [1], the EC50 was 16.1 nM. The “Predicted Hepatic Clearance (Pred. Cl.)” value in data set [2] was 8.17 mL/min/kg.

Turning to `COCCn1c(Cc2cc(F)c(-c3cccc(OCc4cc(F)c(C(F)(F)F)cc4F)n3)cc2F)nc2ccc(C(=O)O)cc21` [Example 867], the EC50 in data set [1] was 2.41 nM. The “Predicted Hepatic Clearance (Pred. Cl.)” value in data set [2] was 1.83 mL/min/kg.

For `COCCn1c(Cc2cc(F)c(-c3cccc(OCc4ccc(C(F)(F)F)cn4)n3)cc2F)nc2ccc(C(=O)O)cc21` [Example 868], in data set [1], the EC50 came to 5.48 nM. Moreover, the “Predicted Hepatic Clearance (Pred. Cl.)” value in data set [2] was 3.5 mL/min/kg.

As to `COCCn1c(Cc2cc(F)c(-c3cccc(OCc4ccc(Cl)cn4)n3)cc2F)nc2ccc(C(=O)O)cc21` [Example 869], the half-maximal effective concentration (EC50) in data set [1] was 6.28 nM. In addition, in data set [2], the “Predicted Hepatic Clearance (Pred. Cl.)” value was 6.5 mL/min/kg.

As for `COCCn1c(Cc2cc(F)c(-c3cccc(OCc4ccc(C#N)cn4)n3)cc2F)nc2ccc(C(=O)O)cc21` [Example 870], in data set [1], the concentration giving a half-maximal response (EC50) was 17.6 nM. Also, in data set [2], the “Predicted Hepatic Clearance (Pred. Cl.)” value is 1.83 mL/min/kg.

Regarding `COCCn1c(Cc2cc(F)c(-c3cccc(OCc4cc(C)c(C(F)(F)F)cc4F)n3)cc2F)nc2ccc(C(=O)O)cc21` [Example 871], the 50% effective concentration (EC50) in data set [1] is 30.8 nM. The “Predicted Hepatic Clearance (Pred. Cl.)” value in data set [2] was 2 mL/min/kg.

Regarding `COCCn1c(Cc2cc(F)c(-c3cccc(OCc4ccc(C(F)(F)F)c(F)c4F)n3)cc2F)nc2ccc(C(=O)O)cc21` [Example 872, 2-[[4-[6-[[2,3-difluoro-4-(trifluoromethyl)phenyl]methoxy]-2-pyridyl]-2,5-difluoro-phenyl]methyl]-3-(2-methoxyethyl)benzimidazole-5-carboxylic acid], the 50% effective concentration (EC50) in data set [1] came to 5.09 nM. In addition, in data set [2], the “Predicted Hepatic Clearance (Pred. Cl.)” value was 1.83 mL/min/kg.

As for `COCCn1c(Cc2cc(F)c(-c3cccc(OCc4cccc5c4COC5)n3)cc2F)nc2ccc(C(=O)O)cc21` [Example 873], the concentration giving a half-maximal response (EC50) in data set [1] was 83.8 nM. Also, the “Predicted Hepatic Clearance (Pred. Cl.)” value in data set [2] is 12.2 mL/min/kg.

As for `COCCn1c(Cc2cc(F)c(-c3cccc(OCc4ccc(Br)c5c4COC5)n3)cc2F)nc2ccc(C(=O)O)cc21` [Example 874], the EC50 in data set [1] was found to be 34.7 nM. The “Predicted Hepatic Clearance (Pred. Cl.)” value in data set [2] was 1.83 mL/min/kg.

As for `COCCn1c(Cc2cc(F)c(-c3cccc(OCc4ccc(C(C)=O)cc4)n3)cc2F)nc2ccc(C(=O)O)cc21` [Example 875], in data set [1], the half-maximal effective concentration (EC50) came out at 2.32 nM. In addition, in data set [2], the “Predicted Hepatic Clearance (Pred. Cl.)” value is 9.33 mL/min/kg.

Consider `COCCn1c(Cc2cc(F)c(-c3cccc(OCc4cccc(Br)c4)n3)cc2F)nc2ccc(C(=O)O)cc21` [Example 876], for which, in data set [1], the EC50 is 27.6 nM. The “Predicted Hepatic Clearance (Pred. Cl.)” value in data set [2] is 1.83 mL/min/kg.

Take `O=C(O)c1ccc2nc(Cc3cc(F)c(-c4nc(OCc5ccc(C(F)F)cc5F)ncc4F)cc3F)n(C[C@@H]3CCO3)c2c1` [Example 877]: the EC50 in data set [1] amounted to 0.51 nM. In data set [2], the “Predicted Hepatic Clearance (Pred. Cl.)” value was 7.17 mL/min/kg.

Turning to `N#Cc1cc(F)c(COc2ncc(F)c(-c3cc(F)c(Cc4nc5ccc(C(=O)O)cc5n4C[C@@H]4CCO4)cc3F)n2)cc1F` [Example 878], the EC50 in data set [1] is 0.78 nM. In addition, the “Predicted Hepatic Clearance (Pred. Cl.)” value in data set [2] is 8.83 mL/min/kg.

These data come from US11702404B2, “GLP-1R modulating compounds” (priority 2019, dated 2023).
